Settings: for vapor or sublimation pressure: Liquid; for molar volume: Gas, isochoric method

FC(C(F)(F)F)C(F)(F)F [1,1,1,2,3,3,3-heptafluoropropane]
Settings | vapor or sublimation pressure [kPa]
235.07 K | 35.5
240.23 K | 46.5
245.31 K | 59.9
250.44 K | 76.3
255.11 K | 94.1
260.28 K | 117.5
265.66 K | 146.4
270.55 K | 177.2
275.23 K | 211.1
280.19 K | 252.4
285.44 K | 302.4
290.14 K | 353.3
295.27 K | 416.1
300.24 K | 484.6
305.29 K | 562.6
310.37 K | 650.5
315.41 K | 747.3
320.07 K | 845.9
325.19 K | 965.7
329.97 K | 1088.3
335.04 K | 1230.8
339.99 K | 1383
345.15 K | 1556.8
350.26 K | 1744.7
355.11 K | 1939
360.18 K | 2159.7
365.27 K | 2401.5

Settings | molar volume [m3/mol]
293.37 K, 214.8 kPa | 0.0106
298.02 K, 297.6 kPa | 0.007594
298.06 K, 219 kPa | 0.0106
298.58 K, 387 kPa | 0.00567
303.22 K, 304.1 kPa | 0.007596
303.42 K, 223.7 kPa | 0.0106
303.52 K, 484.7 kPa | 0.004479
303.65 K, 395.8 kPa | 0.005671
308.37 K, 228 kPa | 0.0106
308.57 K, 310.7 kPa | 0.007598
308.57 K, 562.5 kPa | 0.003857
308.67 K, 496.4 kPa | 0.00448
308.69 K, 404.7 kPa | 0.005672
313.63 K, 507.6 kPa | 0.004481
313.69 K, 413.2 kPa | 0.005673
314.14 K, 232.7 kPa | 0.01061
314.16 K, 317.9 kPa | 0.0076
314.22 K, 577.9 kPa | 0.003858
318.62 K, 518.9 kPa | 0.004482
318.66 K, 421.6 kPa | 0.005675
319.44 K, 237.1 kPa | 0.01061
319.6 K, 324.5 kPa | 0.007601
319.97 K, 593.4 kPa | 0.003859
323.74 K, 530.4 kPa | 0.004483
323.82 K, 430.2 kPa | 0.005676
324.15 K, 241.1 kPa | 0.01061
324.21 K, 329.9 kPa | 0.007603
324.39 K, 605.1 kPa | 0.003859
328.01 K, 244.4 kPa | 0.01061
328.19 K, 334.6 kPa | 0.007604
328.2 K, 614.9 kPa | 0.00386
328.46 K, 540.6 kPa | 0.004484
328.9 K, 438.8 kPa | 0.005677
333.39 K, 248.8 kPa | 0.01062
333.4 K, 551.4 kPa | 0.004485
333.62 K, 341.1 kPa | 0.007606
333.92 K, 629.9 kPa | 0.003861
334.02 K, 447.3 kPa | 0.005679
338.69 K, 642 kPa | 0.003862
338.92 K, 253.5 kPa | 0.01062
338.96 K, 347.5 kPa | 0.007608
338.96 K, 563.3 kPa | 0.004486
339.15 K, 455.7 kPa | 0.00568
343.8 K, 257.7 kPa | 0.01062
343.94 K, 655.2 kPa | 0.003863
343.99 K, 353.6 kPa | 0.00761
344.11 K, 574.3 kPa | 0.004487
344.27 K, 464.1 kPa | 0.005681
348.97 K, 359.5 kPa | 0.007611
349.04 K, 261.8 kPa | 0.01062
349.14 K, 668.4 kPa | 0.003864
349.17 K, 585 kPa | 0.004488
349.21 K, 472.1 kPa | 0.005682
353.32 K, 364.5 kPa | 0.007613
353.39 K, 679.1 kPa | 0.003864
353.64 K, 265.6 kPa | 0.01063
354.39 K, 596 kPa | 0.004489
354.73 K, 481 kPa | 0.005684

Reference: the NIST ThermoML archive (doi:10.1021/je034084d)
